# Experimental data reported in PMC6151500 (Molecules : A Journal of Synthetic Chemistry and Natural …, 2017).
# pIC50: −log10 of the molar value.
# Molecular target: Homo sapiens butyrylcholinesterase (hBuChE) (Homo sapiens, UniProt P06276)
# Assay: Inhibition of hBuChE (Ellman assay, 4PL dose-response)
# Sequence of Homo sapiens butyrylcholinesterase (hBuChE) (P06276 29-602): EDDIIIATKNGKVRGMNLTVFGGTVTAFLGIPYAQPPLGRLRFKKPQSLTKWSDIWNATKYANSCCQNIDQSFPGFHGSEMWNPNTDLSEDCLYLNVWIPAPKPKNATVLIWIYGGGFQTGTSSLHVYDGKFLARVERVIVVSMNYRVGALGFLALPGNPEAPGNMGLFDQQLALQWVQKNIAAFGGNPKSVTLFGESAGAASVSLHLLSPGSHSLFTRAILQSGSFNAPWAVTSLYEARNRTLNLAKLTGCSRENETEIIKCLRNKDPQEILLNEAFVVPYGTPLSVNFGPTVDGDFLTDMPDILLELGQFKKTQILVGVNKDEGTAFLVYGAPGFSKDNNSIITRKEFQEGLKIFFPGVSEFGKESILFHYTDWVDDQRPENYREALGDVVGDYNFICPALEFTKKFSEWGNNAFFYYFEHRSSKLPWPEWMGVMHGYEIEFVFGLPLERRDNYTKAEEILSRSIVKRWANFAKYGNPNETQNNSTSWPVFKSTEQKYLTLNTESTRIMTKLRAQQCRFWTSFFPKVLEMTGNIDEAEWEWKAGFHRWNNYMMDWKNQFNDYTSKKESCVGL
compound,measurement,value
"CN(C)c1ccc(C(=C2C=CC(=[N+](C)C)C=C2)c2ccc(N(C)C)cc2)cc1 [CV, tris(4-(dimethylamino)phenyl)methylium chloride]",pIC50,6.05
